Earlier results on two molecules are cited in patent publication US10751294B1, “Development of an optimized avanafil-loaded invasomal transdermal film” (King Abdulaziz University, priority 2019, dated 2020).

Read-outs that look alike come from different tables or passages of the source.

Experiment in data set [1]: not given
The source holds these as a separate data set.

The conditions of data set [2]: in water, methanol, and ethanol at 25° C.
Experiment in data set [3]: not given
This is another data set of the same source.

`COc1ccc(CN=c2[nH]c(N3CCC[C@H]3CO)ncc2C(=O)NCc2ncccn2)cc1Cl` [AVA, Avanafil]: the “pKa (acidic)” value is recorded as 11.84 and the “pKa (basic)” value is 5.89. Besides, the “log P” value in data set [1] is on record as 1.84. The solubility in data set [2] was less than 1000 µg/mL.

Turning to `O=C(O)CN(CC(=O)O)Cc1cc2c(cc1O)Oc1cc(O)c(CN(CC(=O)O)CC(=O)O)cc1C21OC(=O)c2ccccc21` [calcein], the “drug permeation enhanced (fold)” value is 7.2 fold in data set [3] (from invasomes) and 1.8 fold in data set [3] (from transfersomes).

One may read the log P as the decadic logarithm of the partition coefficient of the neutral form, usually between octanol and water. For orientation: solubility means how much of the substance goes into solution per volume.
